Holding throughout (format): cell-based
One series concerns E. Coli K-12. In words: Susceptibility test: individual MIC and check point FIC. Details: MICCOE: unit not given beside the values. Particulars: for MICantibiotic: antibiotic alone, unit assumed; for FIC: smallest FIC. The method, then:
(§1) FIC was calculated based on the toxicity of each molecule on E. coli as well as their combined toxicity on E. coli. The equation for calculation is as follows:
(§2) FIC═[COE]/MICCOE+[Antibiotic]/MICantibiotic
(§3) An FIC less than ≤0.5 indicates synergy, FIC in the range of >0.5 and ≤1.0 indicates additive activity, FIC in the range of >1 and […] indicates indifference, and a FIC >4 indicates antagonism.
(§4) Minimal inhibition concentration (MIC) were used to determine the toxicity of individual molecules as well as them in combination on several bacterial strains. The individual MIC were determined by the minimal concentration of molecules required to inhibit the growth of the bacterial strain in culture medium (such as Lysogeny broth (LB) and Muller Hinton Broth (MHB)) at 37° C. overnight. The combined MICs were measured by using check point method, where the bacterial strain was cultured in a 96-well plate assay with a series concentrations of COE along the rows and a series concentrations of antibiotic molecules along the columns in culture medium at 37° C. overnight. The preparation of the bacterial strain for the assay was done as known in the art. […] Further information regarding the protocol can be found in Wiegand et al., Natl. Protoc., (2008) 3(2):163-75, Orhan et al., J. of Clin. Microbiol. (2005) 43(1):140-143 and Yan et al., Chem. Sci., (2016) 7(9):5714-5722.

The subject of series [1] is HepG2 (ATCC HB-8065) cells. In words: Cellular cytotoxicity, MTT viability assay. Particulars: 24 h incubation, at 128 μg/mL. The method, then:
Cellular cytotoxicity was assessed using an MTT viability assay. HepG2 (ATCC HB-8065) cells were seeded at 1×10^4 cells/well in 96 well plates over night at 37° C. in DMEM supplemented with 10% FBS before use. COEs were serially diluted with 2-fold dilution in culture media to afford a concentration ranging from 2 to 128 μg/mL. After 24 h incubation, 10 μL of a 5 mg/mL solution of MTT was added to each well. After incubation for 2-4 h, upon discard of previous media, 100 μL of DMSO as solubilizing solution was added to each well, and absorbance at 570 nm were measured on a plate reader. Percent viability was determined by dividing background-corrected absorbance measurements by background corrected measurements for untreated cells. Formula O, Formula TT and Formula PP were measured to be around 94%, 70% and 103% of cell viability at 128 μg/mL, respectively.
Background: Formazan colour is commonly taken as a measure of viable cells.

Series [2] has as its system Colistin resistant Pseudomonas aeruginosa. Nature of the series: Susceptibility test: individual MIC and check point FIC. The arrangement: MICantibiotic / MICCOE: unit not given beside the values. How it is done:
as §1, §2, §3, §4

For series [3], the system named is Colistin resistant Acinetobactor baumanni. Described as above. The method, then:
as §1, §2, §3, §4

The next series relates to Acinetobactor baumanni. The description is as above. The method, then: as §1, §2, §3, §4
For series [4], the system named is Pseudomonas aeruginosa 01 (PA01). Described as above. The arrangement: unit not given beside the values. The conditions noted are these: antibiotic alone, 37° C. overnight. The method, then:
as §1, §2, §3, §4

[5] abbreviates: COE in combination with Colistin, smallest FIC.

With penicillin, in the series with E. Coli K-12 (E. Coli K-12), the MICantibiotic was found to be 64 µg/mL.
Still for that read-out and setting: to `Cc1cc(NS(=O)(=O)c2ccc(N)cc2)no1` [Sulfamethoxazole, sulfamethoxazole] belongs 512 µg/mL; to `O=C(N[C@H](CO)[C@H](O)c1ccc([N+](=O)[O-])cc1)C(Cl)Cl` [Chloramphenicol, chloramphenicol], 16 µg/mL; to `CO[C@H]1/C=C/O[C@@]2(C)Oc3c(C)c(O)c4c(O)c(c(/C=N/N5CCN(C)CC5)c(O)c4c3C2=O)NC(=O)/C(C)=C\C=C\[C@H](C)[C@H](O)[C@@H](C)[C@@H](O)[C@@H](C)[C@H](OC(C)=O)[C@@H]1C` [Rifampin, rifampin], 32 µg/mL.
Broadly, the cell viability is a read-out of living cells in per cent, often relative to untreated cells. `C[N+](C)(C)CCCCCCOc1cc(/C=C/c2ccc(/C=C/c3ccc(/C=C/c4cc(OCCCCCC[N+](C)(C)C)cc(OCCCCCC[N+](C)(C)C)c4)cc3)cc2)cc(OCCCCCC[N+](C)(C)C)c1` [Formula TT] registered a cell viability in series [1] of around 70%. Besides, the MICCOE turned out to be 1024 in the series with E. Coli K-12 (COE alone, E. Coli K-12); 256 in series [2] (COE alone); 256 in series [3] (COE alone); 256 in the series with Acinetobactor baumanni (COE alone). Besides, the FIC turned out to be 1.0 in the series on E. Coli K-12 (COE in combination with Chloramphenicol, E. Coli K-12); 0.53 with E. Coli K-12 (COE in combination with Penicillin, E. Coli K-12); 0.28 with E. Coli K-12 (COE in combination with Rifampin, E. Coli K-12); 0.14 in series [2] (setting [5]); 0.25 in series [3] (setting [5]); 0.51 in the series on Acinetobactor baumanni (setting [5]). Further, the “antimicrobial effect of combination (in words)” value in the series with E. Coli K-12 (with rifampin, E. coli K-12) is recorded as “significant synergistic antimicrobial effect”; in series [2] (with colistin), “significant synergistic antimicrobial effect”; in series [3] (with colistin), “significant synergistic antimicrobial effect”.
Consider `O=C(O)c1cn(C2CC2)c2cc(N3CCNCC3)c(F)cc2c1=O` [Ciprofloxacin, ciprofloxacin], for which the MICantibiotic in the series on E. Coli K-12 (E. Coli K-12) amounted to 0.125 µg/mL.
For the molecule `CC1(C)S[C@@H]2[C@H](NC(=O)[C@H](N)c3ccccc3)C(=O)N2[C@H]1C(=O)O` [Ampicilin, ampicillin], the MICantibiotic in the series on E. Coli K-12 (E. Coli K-12) came out at 4 µg/mL.
colistin [reference compound]: the MICantibiotic amounted to 1 in series [4]; 1 µg/mL in the series on E. Coli K-12 (E. Coli K-12); 16 in series [2] (antibiotic alone); 512 in series [3] (antibiotic alone); 256 in the series with Acinetobactor baumanni (antibiotic alone).

Values taken from patent publication US20230019027A1, “SHORT CONJUGATED OLIGOELECTROLYTESAND ANTIBIOTICS” (The Regents Of The University Of California, priority 2019, published 2023).
